Where two headings read alike, the source gives them in different places. Marks after values point to notes of the source that are not given here.
How the values were obtained:
PTZ-induced seizures [1] = assay: PTZ model of generalised seizures (80 mg/kg PTZ); type: in vivo, Wistar rats; conditions: for Median severity: vehicle 4.25; for % no seizure: vehicle 12.5; for mortality rate: vehicle 44%, not significant
Experimental: Male Wistar rats (P24-29; 75-110 g) were used to assess the effects of the phytocannabinoid CBDV in the PTZ model of generalised seizures. Animals were habituated to the test environment, cages, injection protocol and handling prior to experimentation. Animals were housed in a room at 21° C. on a 12 hour light: dark cycle (lights on 0900) in 50% humidity, with free access to food and water.
Five 6 L Perspex tanks with lids were placed on a single bench with dividers between them. Closed-circuit television (CCTV) cameras were mounted onto the dividers to observe rat behaviour. Sony Topica CCD cameras (Bluecherry, USA) were linked via BNC cables to a low-noise PC via Brooktree digital capture cards (Bluecherry, USA). Zoneminder (http://www.zoneminder.com) software was used to monitor rats, start and end recordings and manage video files. In-house Linux scripts were used to encode video files into a suitable format for further offline analysis using The Observer (Noldus Technologies).
A range of doses of PTZ (50-100 mg/kg body weight) were used to determine the best dose for induction of seizures (see below). As a result, a dose of 80 mg/kg injected intra-peritoneally (IP; stock solution 50 mg/ml in 0.9% saline) were used to screen the CBDV.
On the day of testing, pure CBDV was administered via intra-peritoneal (i.p.) injection at doses of 50, 100 and 200 mg/kg alongside animals that were injected with a matched volume of the cannabinoid vehicle (2:1:17 ethanol:Cremophor: 0.9% w/v NaCl solution), which served as the negative control group. Animals were then observed for 1 hour, after which time they received an IP injection of 80 mg/kg PTZ. Negative vehicle controls were performed in parallel with cannabinoid-dosed subjects. After receiving a dose of PTZ, animals were observed and videoed to determine the severity of seizure and latency to several seizure behaviour types (see in vivo analysis, below). Animals were filmed for half an hour after last sign of seizure, and then returned to their cage.
Animals were observed during experimental procedures, but all analysis was performed offline on recorded video files using The Observer behavioural analysis software (Noldus, Netherlands). A seizure severity scoring system was used to determine the levels of seizure experienced by subjects (Pohl & Mares, 1987). All signs of seizure were detailed for all animals.
The latency (in seconds) from injection of PTZ to first myoclonic jerk (FMJ; score of 1), and to the animal attaining “forelimb clonus with tonic component and body twist” (score of 3.5) were recorded. FMJ is an indicator of the onset of seizure activity, whilst >90% of animals developed scores of 3.5, and so is a good marker of the development of more severe seizures. Data are presented as the mean±S.E.M. within an experimental group.
This is given as the median value for each experimental group based on the scoring scale below.
The percentage of animals within an experimental group that died as a result of PTZ-induced seizures. Note that the majority of animals that developed tonic-clonic seizures (scores of 4 and 5) died as a result, and that a score of 6 (death) automatically denotes that the animal also experienced tonic-clonic seizures.
This is given as the mean±S.E.M. for each experimental group.
For measures of latency and severity, one way analysis of variance (ANOVA) was performed on the four groups together (vehicle and 50, 100 and 200 mg/kg CBDV) to detect overall effects of CBDV (p≤0.05 considered significant).
Significant ANOVA results were followed by post hoc tests to test differences between vehicle and drug groups (Tukey's test, p≤0.05 considered significant).
Methodology as described in Example 2.
General methodology is as described in Example 2.
Three doses of THCV BDS were assessed against a concentration of PTZ known to induce moderate seizures in rats (70 mg/kg; see pilot, above). […]

CB1 receptor = CB1 receptor (Homo sapiens, UniProt P21554); conditions: cited from earlier work
[2] = cited from earlier work
[3] = rats; WO 2007/138322; cited from earlier work
MES-induced seizure = assay: Maximal electroshock seizure (MES) model of epilepsy; type: in vivo, Mouse/ICR
Experimental: The vehicle used in this study was 2:1:17 (ethanol:Cremophor:0.9% ^w/v, NaCl). The test compounds used were cannabidiol (CBD) and cannabidivarin (CBDV). These were made to a solution at the highest concentration; these were then dissolved in ethanol before combination with Cremophor and 0.9% NaCl in the proportion described above. The CBD or CBDV were administered intraperitoneally at a volume of 10 ml/kg body weight. The SAED valproic acid (VBA) was dissolved in saline.
Animal Species/Strain: Mouse/ICR, Microbiological grade: SPF, Supplier: SLC Japan, Inc. […] Temperature: 23±2° C., Humidity: 60±10%, Light conditions: 7 AM to 7 PM for the light period, 7 PM to 7 AM for the dark period. Chow and water: Free access to CRF-1 (Oriental Yeast Co, Ltd) and tap water.
One day before each experiment, mice were weighed and randomized into several groups in each test. On the morning of the experiment day, body weight was measured in order to calculate the administration volume of each animal. Vehicle, CBD, CBDV or valproic acid sodium salt was interperitoneally administered 30 minutes before electric stimuli. Maximal electroshock seizures (MES) in mice was induced by a stimulator (UGO BASILE ECT UNIT 7801, Italia) using a current of 30 mA delivered with a pulse frequency of 100 Hz for 200 msec through earlap electrodes.
All statistical analyses were performed using SAS Software for Windows, Release 9.1 (SAS Institute Japan). The difference of the number (hindlimb extension or deaths) in each group was assessed using two-tailed Fisher's exact test.

CB2 receptor = CB2 receptor (Homo sapiens, UniProt P34972); conditions: WO 2007/138322; cited from earlier work
seizure frequency [4] = conditions: 900-1200 mg of cannabidiol a day for 10 months; single patient; cited from earlier work
grand mal seizures = conditions: 200-300 mg of cannabidiol plus regular medication; Cunha et al (1980); cited from earlier work
seizure frequency [5] = conditions: 200-300 mg of cannabidiol per day in addition to standard antiepileptic drugs; 12 patients; cited from earlier work
[6] = test system: pilocarpine-induced seizures; assay: CBDV with standard anti-epileptic drugs in the pilocarpine model of epilepsy; type: in vivo; conditions: CBDV 200 mg/kg with valproate at various doses
Description: These two drugs are representative of two classes of anti-convulsants which have different mechanisms of action.

PTZ-induced seizures [7] = assay: CBDV with standard anti-epileptic drugs in the PTZ model of generalised seizures; type: in vivo, Wistar rats; conditions: valproate (varying doses) co-administered with CBDV 200 mg/kg
Experimental: As described in Example 2 above. Varying doses of the SAED's ethosuximide and valproate were tested in combination to isolated CBDV at a dose of 200 mg/kg.

seizures = conditions: THC administered to 5 institutionalized children not responding to phenobarbital and phenytoin; cited from earlier work
[8] = rats at doses greater than 200 mg/kg

Chain of CB1 receptor (P21554 whole entry): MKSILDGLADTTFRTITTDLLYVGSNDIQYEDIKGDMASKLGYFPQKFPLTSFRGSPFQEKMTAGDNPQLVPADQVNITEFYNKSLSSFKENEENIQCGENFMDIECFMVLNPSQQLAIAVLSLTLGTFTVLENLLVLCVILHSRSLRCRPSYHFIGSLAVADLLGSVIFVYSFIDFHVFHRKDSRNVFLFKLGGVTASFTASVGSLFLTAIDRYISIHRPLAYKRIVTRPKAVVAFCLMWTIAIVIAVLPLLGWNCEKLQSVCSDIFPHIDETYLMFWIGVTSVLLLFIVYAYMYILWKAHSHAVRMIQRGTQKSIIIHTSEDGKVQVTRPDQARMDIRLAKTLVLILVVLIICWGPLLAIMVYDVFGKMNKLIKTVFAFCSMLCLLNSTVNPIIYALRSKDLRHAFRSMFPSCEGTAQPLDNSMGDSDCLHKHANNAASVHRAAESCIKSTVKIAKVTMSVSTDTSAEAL
Chain of CB2 receptor (P34972 whole entry): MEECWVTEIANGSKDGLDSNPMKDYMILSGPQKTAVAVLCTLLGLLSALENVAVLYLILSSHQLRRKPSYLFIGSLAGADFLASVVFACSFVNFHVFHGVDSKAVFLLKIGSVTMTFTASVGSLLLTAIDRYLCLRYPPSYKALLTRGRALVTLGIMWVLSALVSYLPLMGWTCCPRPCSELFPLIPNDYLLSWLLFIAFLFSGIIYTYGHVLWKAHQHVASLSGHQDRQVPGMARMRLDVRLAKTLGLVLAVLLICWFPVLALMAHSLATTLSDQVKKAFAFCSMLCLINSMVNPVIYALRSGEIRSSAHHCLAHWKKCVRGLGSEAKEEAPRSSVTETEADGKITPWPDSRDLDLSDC

## CCCc1cc(O)c2c(c1)OC(C)(C)[C@@H]1CCC(C)=C[C@@H]21 [THCV, tetrahydrocannabivarin]
PTZ-induced seizures [1]; 0.025 mg/kg THCV, 80 mg/kg PTZ
  Median severity: 3.5
  % no seizure: 5.9%
PTZ-induced seizures [1]; 0.25 mg/kg THCV, 80 mg/kg PTZ
  Median severity: 3.5
  % no seizure: 33.3%
PTZ-induced seizures [1]; 2.5 mg/kg THCV, 80 mg/kg PTZ
  Median severity: 3.5
  % no seizure: 18.8%
PTZ-induced seizures [1]; high (2.5 mg/kg) pure THCV, 80 mg/kg PTZ
  mortality rate: 38%
PTZ-induced seizures [1]; highest dose of THCV (2.5 mg/kg), 80 mg/kg PTZ, p=0.013
  latency to score of [5] vs vehicle: increased latencies, reaching a significant level
PTZ-induced seizures [1]; highest dose of THCV (2.5 mg/kg), 80 mg/kg PTZ, p=0.017
  latency to score of [3] vs vehicle: increased latencies, reaching a significant level
PTZ-induced seizures [1]; highest dose of THCV (2.5 mg/kg), 80 mg/kg PTZ, p=0.02
  latency to first manifestation of seizure-like behaviour vs vehicle: delay of onset was significant
PTZ-induced seizures [1]; low (0.025 mg/kg) pure THCV, 80 mg/kg PTZ
  mortality rate: 41%
PTZ-induced seizures [1]; medium (0.25 mg/kg) pure THCV, 80 mg/kg PTZ
  mortality rate: 33%
PTZ-induced seizures [1]; medium dose of THCV (0.25 mg/kg), 80 mg/kg PTZ, p=0.03
  duration of PTZ-induced seizures in animals that survived vs vehicle: significantly shorter
CB1 receptor
  activity at the CB1 receptor: antagonist

## CCC1(c2ccccc2)C(=O)NC(=O)NC1=O [phenobarbital]
[2]; rat models of epilepsy at doses greater than 250 mg/kg
  motor and other side effects: notable motor and other side effects (including sedation)

## C=C(C)[C@@H]1CCC(C)=C[C@H]1c1c(O)cc(CCCCC)cc1O [CBD, cannabidiol]
[3]
  bodyweight: reduced
MES-induced seizure; 3 mg/kg i.p., Table 10.1, 5 mice per group, vehicle 5/5
  Incidence of Tonic convulsion: 3/5
MES-induced seizure; 10 mg/kg i.p., Table 10.1, 5 mice per group, vehicle 5/5
  Incidence of Tonic convulsion: 4/5
MES-induced seizure; 30 mg/kg i.p., Table 10.1, 5 mice per group, vehicle 5/5
  Incidence of Tonic convulsion: 3/5
MES-induced seizure; 100 mg/kg i.p., Table 10.1, 5 mice per group, vehicle 5/5
  Incidence of Tonic convulsion: 4/5
MES-induced seizure; CBD 3-100 mg·kg IP
  inhibition of the expression of hindlimb extension with statistical significance: not able to inhibit
CB2 receptor
  activity at the CB2 receptor: inverse agonists
Seizure frequency [4]
  seizure frequency: markedly reduced
Grand mal seizures
  patients who remained unchanged: 1
  patients who showed complete improvement: 3
  patients who showed minor improvement: 2
  patients who showed partial improvement: 2
  unwanted effect: mild sedation
PTZ-induced seizures [1]; 100 mg/kg CBD IP 60 minutes before 80 mg/kg PTZ, vehicle 46.7%, p<0.001
  animals that died: 6.7%
PTZ-induced seizures [1]; 100 mg/kg CBD IP, 80 mg/kg PTZ, vehicle 53.3%, p<0.001
  animals that experienced the most severe seizures (score of 5): 6.7%
PTZ-induced seizures [1]; CBD 1, 10 and 100 mg/kg IP, 80 mg/kg PTZ
  latency of seizure development: no significant increases
CB1 receptor
  activity at the CB1 receptor: inverse agonists
Seizure frequency [5]
  improvement in seizure frequency: no significant improvement

## CCCC(CCC)C(=O)O [Valproic acid, valproic acid, reference compound]
MES-induced seizure; 200 mg/kg i.p., Table 10.2, 10 mice per group, vehicle 9/10
  Incidence of Tonic convulsion: 5/10
MES-induced seizure; 350 mg/kg i.p., Table 10.1, 5 mice per group, vehicle 5/5
  Incidence of Tonic convulsion: 0/5**
MES-induced seizure; 350 mg/kg i.p., Table 10.2, 10 mice per group, vehicle 9/10
  Incidence of Tonic convulsion: 1/10**
MES-induced seizure; 350 mg/kg valproic acid, statistically significant
  hindlimb extension vs vehicle group: blocked
[2]; [8]
  motor and other side effects: notable motor and other side effects (including sedation)
[6]
  mortality (independent effect): only CBDV and not valproate independently caused a significant decrease
  seizure severity (independent effect): independent and positive effects
PTZ-induced seizures [7]
  mortality (independent effect when co-administered): significant decreases
  onset latency (independent effect when co-administered): significant decreases
  seizure severity (independent effect when co-administered): significant decreases

## CCC1(C)CC(=O)NC1=O (stereo not drawn) [ethosuximide]
[2]; [8]
  motor and other side effects: notable motor and other side effects (including sedation)

## CCCCCc1cc(O)c2c(c1)OC(C)(C)[C@@H]1CCC(C)=C[C@@H]21 [THC, tetrahydrocannabinol]
seizures
  seizure outcome in 5 children: One became entirely free of seizures, one became almost completely free of seizures, and the other three did no worse than before

Reference: US10799467B2, “Use of the phytocannabinoid cannabidivarin (CBDV) in the treatment of epilepsy” (GW Pharma Limited, priority 2010, dated 2020)
